# Patent publication US4416884A, “Piperazinylbenzoheterocyclic compounds” (Otsuka Pharmaceutical Co., Ltd., priority 1978, dated 1983)
# Read-outs that look alike come from different tables or passages of the source.
# Experiments:
# [1] = system: Corinebacterium diphteriae; assay: antimicrobial activity, serial dilution method on agar plate; format: cell-based
# Summary of the method: (§1)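 Agar-plate serial dilution in Heart Infusion agar; inocula prepared at 1×10^8 cells/ml (O.D. 660 mμ=0.07 to 0.16) and at 1×10^6 cells/ml by dilution. Values are minimum inhibitory concentrations in mcg/ml.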
# [2] = system: Escherichia Coli NIHJ JC-2 (IFO 12734); assay: as above; format: cell-based; conditions: Escherichia coli, read-out: Minimum Inhibitory Concentration
# Summary of the method: as §1
# [3] = system: Klebsiella pneumoniae ST-101; assay: as above; format: cell-based
# Summary of the method: as §1
# Klebsiella pneumoniae = assay: as above; format: cell-based
# Summary of the method: as §1
# [4] = system: Proteus morganii IID Kono; assay: as above; format: cell-based; conditions: Morganella morganii
# Summary of the method: as §1
# [5] = system: Pseudomonas aeruginosa E-2; assay: as above; format: cell-based
# Summary of the method: as §1
# [6] = system: Pseudomonas maltophilia IFO 12692; assay: as above; format: cell-based; conditions: Stenotrophomonas maltophilia
# Summary of the method: as §1
# [7] = system: Salmonella typhi 0-901 (NCTC 8393); assay: as above; format: cell-based; conditions: Salmonella enterica
# Summary of the method: as §1
# [8] = system: Streptococcus pneumoniae Type II; assay: as above; format: cell-based
# Summary of the method: as §1
# [9] = system: Streptococcus pyogenes IID Cook; assay: as above; format: cell-based
# Summary of the method: as §1
# [10] = system: Streptococcus pyogenes IID S-23; assay: as above; format: cell-based
# Summary of the method: as §1
# in vitro = conditions: human
# Experimental: A 1/15 mol/l phosphate buffer was added to powder of Moni-Trol 1 (dehydrated preparation of human serum, a product of Midori Juji Co., Ltd.) to prepare a composition having the same serum protein concentration as natural human serum and this preparation was labeled "100% human serum", an aliquot of the "100% human serum" preparation was mixed with the same volume of the above buffer to prepare "50% human serum" and another aliquot was mixed with 4 times as much as its volume of the buffer to prepare "20% human serum".
# [11] = system: Test Organism 1 (Escherichia Coli NIHJ); assay: influence of the addition of horse serum on the MIC; format: cell-based
# [12] = system: Test Organism 2 (Escherichia Coli NIHJ JC-2 (IFO 12734)); assay: as above; format: cell-based
# [13] = system: Test Organism 17 (Pseudomonas putida IFO 13696); assay: as above; format: cell-based
# [14] = system: Test Organism 16 (Pseudomonas maltophilia IFO 12692); assay: as above; format: cell-based; conditions: Stenotrophomonas maltophilia, read-out: Minimum Inhibitory Concentration
# [15] = system: Test Organism 27 (Streptococcus pneumoniae Type III); assay: as above; format: cell-based
# [16] = read-out: Minimum Inhibitory Concentration, inoculum 1 × 10^6 cells/ml
# [17] = read-out: Minimum Inhibitory Concentration, inoculum 1 × 10^8 cells/ml
# [18] = inoculum 1 × 10^6 cells/ml, read-out: Minimum Inhibitory Concentration
# [19] = inoculum 1 × 10^8 cells/ml, read-out: Minimum Inhibitory Concentration
# [20] = horse serum 0%, inoculum 10^6, read-out: Minimum Inhibitory Concentration
# [21] = horse serum 0%, inoculum 10^8, read-out: Minimum Inhibitory Concentration
# [22] = horse serum 10%, inoculum 10^6, read-out: Minimum Inhibitory Concentration
# [23] = horse serum 10%, inoculum 10^8, read-out: Minimum Inhibitory Concentration
# [24] = horse serum 20%, inoculum 10^6, read-out: Minimum Inhibitory Concentration
# [25] = horse serum 20%, inoculum 10^8, read-out: Minimum Inhibitory Concentration
# [26] = horse serum 40%, inoculum 10^6, read-out: Minimum Inhibitory Concentration
# [27] = horse serum 40%, inoculum 10^8, read-out: Minimum Inhibitory Concentration
smiles,measurement,setting,value
CCn1cc(C(=O)O)c(=O)c2ccc(C)nc21 [E],MIC,[1]; [16],> 100 µg/mL
same,MIC,[1]; [17],> 100 µg/mL
same,MIC,[2]; inoculum 1 × 10^6 cells/ml,3.1 µg/mL
same,MIC,[2]; inoculum 1 × 10^8 cells/ml,3.1 µg/mL
same,MIC,"[3]; ST101, read-out: Minimum Inhibitory Concentration, inoculum 1 × 10^6 cells/ml",1.6 µg/mL
same,MIC,"[3]; ST101, read-out: Minimum Inhibitory Concentration, inoculum 1 × 10^8 cells/ml",1.6 µg/mL
same,MIC,Klebsiella pneumoniae; [16],3.1 µg/mL
same,MIC,Klebsiella pneumoniae; [17],3.1 µg/mL
same,MIC,[4]; [16],3.1 µg/mL
same,MIC,[4]; [17],6.3 µg/mL
same,MIC,"[5]; E2, read-out: Minimum Inhibitory Concentration, inoculum 1 × 10^6 cells/ml",> 100 µg/mL
same,MIC,"[5]; E2, read-out: Minimum Inhibitory Concentration, inoculum 1 × 10^8 cells/ml",> 100 µg/mL
same,MIC,"[6]; IFO12692, read-out: Minimum Inhibitory Concentration",> 100 µg/mL
same,MIC,[7]; [16],3.1 µg/mL
same,MIC,[7]; [17],3.1 µg/mL
same,MIC,[8]; [16],> 100 µg/mL
same,MIC,[8]; [17],> 100 µg/mL
same,MIC,[9]; [16],> 100 µg/mL
same,MIC,[9]; [17],> 100 µg/mL
same,MIC,"[10]; IIDS23, read-out: Minimum Inhibitory Concentration, inoculum 1 × 10^6 cells/ml",> 100 µg/mL
same,MIC,"[10]; IIDS23, read-out: Minimum Inhibitory Concentration, inoculum 1 × 10^8 cells/ml",> 100 µg/mL
same,fraction unbound at 2 h,in vitro; 10% human serum,0.528
same,fraction unbound at 2 h,"in vitro; 10% human serum, Inactivation Ratio",0.587
same,fraction unbound at 2 h,in vitro; 20% human serum,0.608
same,fraction unbound at 2 h,"in vitro; 20% human serum, Inactivation Ratio",0.565
same,fraction unbound at 2 h,in vitro; 50% human serum,0.376
same,fraction unbound at 2 h,"in vitro; 50% human serum, Inactivation Ratio",0.387
same,fraction unbound at 2 h,in vitro; 100% human serum,0.24
same,fraction unbound at 2 h,"in vitro; 100% human serum, Inactivation Ratio",0.387
CC1CCc2cc(F)cc3c(=O)c(C(=O)O)cn1c23 (stereo not shown) [F],MIC,[1]; [18],> 6.3 µg/mL
same,MIC,[1]; [19],> 25 µg/mL
same,MIC,[2]; inoculum 1 × 10^6 cells/ml,0.4 µg/mL
same,MIC,[2]; inoculum 1 × 10^8 cells/ml,0.8 µg/mL
same,MIC,"[3]; ST101, inoculum 1 × 10^6 cells/ml, read-out: Minimum Inhibitory Concentration",0.1 µg/mL
same,MIC,"[3]; ST101, inoculum 1 × 10^8 cells/ml, read-out: Minimum Inhibitory Concentration",0.2 µg/mL
same,MIC,Klebsiella pneumoniae; [18],0.4 µg/mL
same,MIC,Klebsiella pneumoniae; [19],0.8 µg/mL
same,MIC,[4]; [18],0.4 µg/mL
same,MIC,[4]; [19],0.8 µg/mL
same,MIC,"[5]; E2, inoculum 1 × 10^6 cells/ml, read-out: Minimum Inhibitory Concentration",50 µg/mL
same,MIC,"[5]; E2, inoculum 1 × 10^8 cells/ml, read-out: Minimum Inhibitory Concentration",50 µg/mL
same,MIC,"[6]; IFO12692, inoculum 1 × 10^8 cells/ml, read-out: Minimum Inhibitory Concentration",25 µg/mL
same,MIC,[7]; [16],0.2 µg/mL
same,MIC,[7]; [17],0.2 µg/mL
same,MIC,[8]; [19],> 100 µg/mL
same,MIC,[9]; [19],> 100 µg/mL
same,MIC,"[10]; IIDS23, inoculum 1 × 10^6 cells/ml, read-out: Minimum Inhibitory Concentration",> 100 µg/mL
same,MIC,"[10]; IIDS23, inoculum 1 × 10^8 cells/ml, read-out: Minimum Inhibitory Concentration",> 100 µg/mL
same,MIC,[11]; [20],1.6 µg/mL
same,MIC,[11]; [21],1.6 µg/mL
same,MIC,[11]; [22],3.1 µg/mL
same,MIC,[11]; [23],3.1 µg/mL
same,MIC,[11]; [24],3.1 µg/mL
same,MIC,[11]; [25],6.3 µg/mL
same,MIC,[11]; [26],12.5 µg/mL
same,MIC,[11]; [27],12.5 µg/mL
same,MIC,[12]; [20],0.8 µg/mL
same,MIC,[12]; [21],0.8 µg/mL
same,MIC,[12]; [22],0.8 µg/mL
same,MIC,[12]; [23],0.8 µg/mL
same,MIC,[12]; [24],0.8 µg/mL
same,MIC,[12]; [25],0.8 µg/mL
same,MIC,[12]; [26],1.6 µg/mL
same,MIC,[12]; [27],1.6 µg/mL
same,MIC,"[13]; IFO13696, horse serum 0%, inoculum 10^6, read-out: Minimum Inhibitory Concentration",0.1 µg/mL
same,MIC,"[13]; IFO13696, horse serum 0%, inoculum 10^8, read-out: Minimum Inhibitory Concentration",0.2 µg/mL
same,MIC,"[13]; IFO13696, horse serum 10%, inoculum 10^6, read-out: Minimum Inhibitory Concentration",0.2 µg/mL
same,MIC,"[13]; IFO13696, horse serum 10%, inoculum 10^8, read-out: Minimum Inhibitory Concentration",0.4 µg/mL
same,MIC,"[13]; IFO13696, horse serum 20%, inoculum 10^6, read-out: Minimum Inhibitory Concentration",0.2 µg/mL
same,MIC,"[13]; IFO13696, horse serum 20%, inoculum 10^8, read-out: Minimum Inhibitory Concentration",0.2 µg/mL
same,MIC,"[13]; IFO13696, horse serum 40%, inoculum 10^6, read-out: Minimum Inhibitory Concentration",0.2 µg/mL
same,MIC,"[13]; IFO13696, horse serum 40%, inoculum 10^8, read-out: Minimum Inhibitory Concentration",0.2 µg/mL
same,MIC,"[14]; IFO12692, horse serum 0%, inoculum 10^6",0.8 µg/mL
same,MIC,"[14]; IFO12692, horse serum 0%, inoculum 10^8",0.8 µg/mL
same,MIC,"[14]; IFO12692, horse serum 10%, inoculum 10^6",0.4 µg/mL
same,MIC,"[14]; IFO12692, horse serum 10%, inoculum 10^8",0.8 µg/mL
same,MIC,"[14]; IFO12692, horse serum 20%, inoculum 10^6",1.6 µg/mL
same,MIC,"[14]; IFO12692, horse serum 20%, inoculum 10^8",0.8 µg/mL
same,MIC,"[14]; IFO12692, horse serum 40%, inoculum 10^6",1.6 µg/mL
same,MIC,"[14]; IFO12692, horse serum 40%, inoculum 10^8",1.6 µg/mL
same,MIC,[15]; [20],50 µg/mL
same,MIC,[15]; [21],50 µg/mL
same,MIC,[15]; [22],50 µg/mL
same,MIC,[15]; [23],> 50 µg/mL
same,MIC,[15]; [24],50 µg/mL
same,MIC,[15]; [25],> 50 µg/mL
same,MIC,[15]; [26],50 µg/mL
same,MIC,[15]; [27],> 50 µg/mL
